Columns and labels:
COR-L23 = test: cells; type: functional, cell-based; settings: Homo sapiens
Description: SANGER: Inhibition of human COR-L23 cell growth in a cell viability assay.

COR-L279 = test: SANGER: Inhibition of human COR-L279 cell growth in a cell viability assay.; type: functional, cell-based
ChaGo-K-1 = test: cells; type: functional, cell-based; settings: Homo sapiens
Description: SANGER: Inhibition of human ChaGo-K-1 cell growth in a cell viability assay.

DU-145 = test: cells; type: functional, cell-based; settings: Homo sapiens
Description: SANGER: Inhibition of human DU-145 cell growth in a cell viability assay.

EFM-19 = test: cells; type: functional, cell-based; settings: Homo sapiens
Description: SANGER: Inhibition of human EFM-19 cell growth in a cell viability assay.

EFO-27 = test: cells; type: functional, cell-based; settings: Homo sapiens
Description: SANGER: Inhibition of human EFO-27 cell growth in a cell viability assay.

G-401 = test: cells; type: functional, cell-based; settings: Homo sapiens
Description: SANGER: Inhibition of human G-401 cell growth in a cell viability assay.

GCT = test: cells; type: functional, cell-based; settings: Homo sapiens
Description: SANGER: Inhibition of human GCT cell growth in a cell viability assay.

GMS-10 = test: cells; type: functional, cell-based; settings: Homo sapiens
Description: SANGER: Inhibition of human GMS-10 cell growth in a cell viability assay.

H4 = test: cells; type: functional, cell-based; settings: Homo sapiens
Description: SANGER: Inhibition of human H4 cell growth in a cell viability assay.

HCC1419 = test: cells; type: functional, cell-based; settings: Homo sapiens
Description: SANGER: Inhibition of human HCC1419 cell growth in a cell viability assay.

HCT-116 = test: cells; type: functional, cell-based; settings: Homo sapiens
Description: SANGER: Inhibition of human HCT-116 cell growth in a cell viability assay.

HCT-15 = test: cells; type: functional, cell-based; settings: Homo sapiens
Description: SANGER: Inhibition of human HCT-15 cell growth in a cell viability assay.

HOP-92 = test: cells; type: functional, cell-based; settings: Homo sapiens
Description: SANGER: Inhibition of human HOP-92 cell growth in a cell viability assay.

HT-3 = test: cells; type: functional, cell-based; settings: Homo sapiens
Description: SANGER: Inhibition of human HT-3 cell growth in a cell viability assay.

HuO-3N1 = test: cells; type: functional, cell-based; settings: Homo sapiens
Description: SANGER: Inhibition of human HuO-3N1 cell growth in a cell viability assay.

IMR-5 = test: cells; type: functional, cell-based; settings: Homo sapiens
Description: SANGER: Inhibition of human IMR-5 cell growth in a cell viability assay.

KYSE-410 = test: cells; type: functional, cell-based; settings: Homo sapiens
Description: SANGER: Inhibition of human KYSE-410 cell growth in a cell viability assay.

MDA-MB-361 = test: cells; type: functional, cell-based; settings: Homo sapiens
ME-180 = test: cells; type: functional, cell-based; settings: Homo sapiens
Description: SANGER: Inhibition of human ME-180 cell growth in a cell viability assay.

MEL-HO = test: cells; type: functional, cell-based; settings: Homo sapiens
Description: SANGER: Inhibition of human MEL-HO cell growth in a cell viability assay.

MHH-CALL-2 = test: cells; type: functional, cell-based; settings: Homo sapiens
Description: SANGER: Inhibition of human MHH-CALL-2 cell growth in a cell viability assay.

MKN-1 = test: cells; type: functional, cell-based; settings: Homo sapiens
Description: SANGER: Inhibition of human MKN1 cell growth in a cell viability assay.

NB1 = test: cells; type: functional, cell-based; settings: Homo sapiens
Description: SANGER: Inhibition of human NB1 cell growth in a cell viability assay.

NCI-H2052 = test: cells; type: functional, cell-based; settings: Homo sapiens
Description: SANGER: Inhibition of human NCI-H2052 cell growth in a cell viability assay.

NCI-H2081 = test: cells; type: functional, cell-based; settings: Homo sapiens
Description: SANGER: Inhibition of human NCI-H2081 cell growth in a cell viability assay.

NCI-H2196 = test: cells; type: functional, cell-based; settings: Homo sapiens
Description: SANGER: Inhibition of human NCI-H2196 cell growth in a cell viability assay.

NCI-H2342 = test: cells; type: functional, cell-based; settings: Homo sapiens
Description: SANGER: Inhibition of human NCI-H2342 cell growth in a cell viability assay.

NCI-H28 = test: cells; type: functional, cell-based; settings: Homo sapiens
Description: SANGER: Inhibition of human NCI-H28 cell growth in a cell viability assay.

NCI-H292 = test: cells; type: functional, cell-based; settings: Homo sapiens
Description: SANGER: Inhibition of human NCI-H292 cell growth in a cell viability assay.

NCI-H524 = test: cells; type: functional, cell-based; settings: Homo sapiens
Description: SANGER: Inhibition of human NCI-H524 cell growth in a cell viability assay.

NCI-H716 = test: cells; type: functional, cell-based; settings: Homo sapiens
Description: SANGER: Inhibition of human NCI-H716 cell growth in a cell viability assay.

NCI-H810 = test: cells; type: functional, cell-based; settings: Homo sapiens
Description: SANGER: Inhibition of human NCI-H810 cell growth in a cell viability assay.

SNU-16 = test: cells; type: functional, cell-based; settings: Homo sapiens
Description: SANGER: Inhibition of human NCI-SNU-16 cell growth in a cell viability assay.

PANC-08-13 = test: cells; type: functional, cell-based; settings: Homo sapiens
Description: SANGER: Inhibition of human PANC-08-13 cell growth in a cell viability assay.

RO82-W-1 = test: cells; type: functional, cell-based; settings: Homo sapiens
Description: SANGER: Inhibition of human RO82-W-1 cell growth in a cell viability assay.

RPMI 8402 = test: SANGER: Inhibition of human RPMI-8402 cell growth in a cell viability assay.; type: functional, cell-based
RT-112 = test: cells; type: functional, cell-based; settings: Homo sapiens
Description: SANGER: Inhibition of human RT-112 cell growth in a cell viability assay.

SCC-9 = test: cells; type: functional, cell-based; settings: Homo sapiens
Description: SANGER: Inhibition of human SCC-9 cell growth in a cell viability assay.

SF-295 = test: cells; type: functional, cell-based; settings: Homo sapiens
Description: SANGER: Inhibition of human SF295 cell growth in a cell viability assay.

SK-MEL-28 = test: cells; type: functional, cell-based; settings: Homo sapiens
Description: SANGER: Inhibition of human SK-MEL-28 cell growth in a cell viability assay.

SK-MEL3 = test: cells; type: functional, cell-based, SK-MEL-3; settings: Homo sapiens
Description: SANGER: Inhibition of human SK-MEL-3 cell growth in a cell viability assay.

ST486 = test: SANGER: Inhibition of human ST486 cell growth in a cell viability assay.; type: functional, cell-based
SUP-T1 = test: cells; type: functional, cell-based; settings: Homo sapiens
Description: SANGER: Inhibition of human SUP-T1 cell growth in a cell viability assay.

SW1088 = test: cells; type: functional, cell-based; settings: Homo sapiens
Description: SANGER: Inhibition of human SW1088 cell growth in a cell viability assay.

SW48 = test: cells; type: functional, cell-based; settings: Homo sapiens
Description: SANGER: Inhibition of human SW48 cell growth in a cell viability assay.

SW626 = test: cells; type: functional, cell-based; settings: Homo sapiens
Description: SANGER: Inhibition of human SW626 cell growth in a cell viability assay.

SW756 = test: cells; type: functional, cell-based; settings: Homo sapiens
Description: SANGER: Inhibition of human SW756 cell growth in a cell viability assay.

SW780 = test: cells; type: functional, cell-based; settings: Homo sapiens
Description: SANGER: Inhibition of human SW780 cell growth in a cell viability assay.

SW837 = test: cells; type: functional, cell-based; settings: Homo sapiens
Description: SANGER: Inhibition of human SW837 cell growth in a cell viability assay.

8505C = test: cells; type: functional, cell-based; settings: Homo sapiens
Description: SANGER: Inhibition of human 8505C cell growth in a cell viability assay.

A253 cell line = test: cells; type: functional, cell-based; settings: Homo sapiens
Description: SANGER: Inhibition of human A253 cell growth in a cell viability assay.

BC1 cell line = test: SANGER: Inhibition of human BC-1 cell growth in a cell viability assay.; type: functional, cell-based
BPH-1 = test: cells; type: functional, cell-based; settings: Homo sapiens
Description: SANGER: Inhibition of human BPH-1 cell growth in a cell viability assay.

CA46 = test: cells; type: functional, cell-based; settings: Homo sapiens
Description: SANGER: Inhibition of human CA46 cell growth in a cell viability assay.

CAL-148 = test: cells; type: functional, cell-based; settings: Homo sapiens
Description: SANGER: Inhibition of human CAL-148 cell growth in a cell viability assay.

CAL-27 = test: cells; type: functional, cell-based; settings: Homo sapiens
Description: SANGER: Inhibition of human CAL-27 cell growth in a cell viability assay.

TE-441-T = test: cells; type: functional, cell-based; settings: Homo sapiens
Description: SANGER: Inhibition of human TE-441-T cell growth in a cell viability assay.

U2OS = test: cells; type: functional, cell-based, U-2-OS; settings: Homo sapiens
Description: SANGER: Inhibition of human U-2-OS cell growth in a cell viability assay.

UACC-62 = test: cells; type: functional, cell-based; settings: Homo sapiens
Description: SANGER: Inhibition of human UACC-62 cell growth in a cell viability assay.

UMUC3 = test: cells; type: functional, cell-based; settings: Homo sapiens
Description: SANGER: Inhibition of human UM-UC-3 cell growth in a cell viability assay.

YKG-1 = test: cells; type: functional, cell-based; settings: Homo sapiens
Description: SANGER: Inhibition of human YKG-1 cell growth in a cell viability assay.

CESS = test: SANGER: Inhibition of human CESS cell growth in a cell viability assay.; type: functional, cell-based
CHP-126 = test: cells; type: functional, cell-based; settings: Homo sapiens
Description: SANGER: Inhibition of human CHP-126 cell growth in a cell viability assay.

## Fc1cc(-c2cc[nH]/c(=N/c3ccc(-n4cnc(N5CCOCC5)n4)cc3)n2)cc(N2CCOCC2)c1
COR-L23
  IC50: 1 µM
COR-L279
  IC50: 1.13 µM
ChaGo-K-1
  IC50: 1.37 µM
DU-145
  IC50: 0.48 µM
EFM-19
  IC50: 0.76 µM
EFO-27
  IC50: 0.413 µM
G-401
  IC50: 0.38 µM
GCT
  IC50: 0.204 µM
GMS-10
  IC50: 2.84 µM
H4
  IC50: 0.439 µM
HCC1419
  IC50: 1.09 µM
HCT-116
  IC50: 0.164 µM
HCT-15
  IC50: 0.258 µM
HOP-92
  IC50: 2.41 µM
HT-3
  IC50: 0.102 µM
HuO-3N1
  IC50: 1.57 µM
IMR-5
  IC50: 2.05 µM
KYSE-410
  IC50: 1.28 µM
MDA-MB-361
  IC50: 1.07 µM
ME-180
  IC50: 1.41 µM
MEL-HO
  IC50: 0.19 µM
MHH-CALL-2
  IC50: 0.762 µM
MKN-1
  IC50: 0.549 µM
NB1
  IC50: 0.447 µM
NCI-H2052
  IC50: 1.65 µM
NCI-H2081
  IC50: 1.5 µM
NCI-H2196
  IC50: 0.786 µM
NCI-H2342
  IC50: 0.362 µM
NCI-H28
  IC50: 0.34 µM
NCI-H292
  IC50: 0.508 µM
NCI-H524
  IC50: > 5.12 µM
NCI-H716
  IC50: 3.92 µM
NCI-H810
  IC50: 0.208 µM
SNU-16
  IC50: > 5.12 µM
PANC-08-13
  IC50: 0.09 µM
RO82-W-1
  IC50: > 5.12 µM
RPMI 8402
  IC50: 0.605 µM
RT-112
  IC50: 0.337 µM
SCC-9
  IC50: 0.218 µM
SF-295
  IC50: 0.555 µM
SK-MEL-28
  IC50: > 5.12 µM
SK-MEL3
  IC50: 0.877 µM
ST486
  IC50: 0.19 µM
SUP-T1
  IC50: 0.427 µM
SW1088
  IC50: > 5.12 µM
SW48
  IC50: 0.742 µM
SW626
  IC50: 1.09 µM
SW756
  IC50: 2.06 µM
SW780
  IC50: 1.63 µM
SW837
  IC50: 2.95 µM
8505C
  IC50: 1.26 µM
A253 cell line
  IC50: 0.261 µM
BC1 cell line
  IC50: 0.491 µM
BPH-1
  IC50: 1.97 µM
CA46
  IC50: 0.333 µM
CAL-148
  IC50: 4.94 µM
CAL-27
  IC50: 0.066 µM
TE-441-T
  IC50: 0.316 µM
U2OS
  IC50: > 5.12 µM
UACC-62
  IC50: 0.37 µM
UMUC3
  IC50: 1.27 µM
YKG-1
  IC50: 0.724 µM
CESS
  IC50: 0.341 µM
CHP-126
  IC50: 0.608 µM

## CC(O)(CS(=O)(=O)c1ccc(F)cc1)C(=O)Nc1ccc(C#N)c(C(F)(F)F)c1 (stereo not drawn) [BICALUTAMIDE]
COR-L23
  IC50: > 1.02 µM
COR-L279
  IC50: > 1.02 µM
ChaGo-K-1
  IC50: > 1.02 µM
DU-145
  IC50: > 1.02 µM
EFM-19
  IC50: > 1.02 µM
EFO-27
  IC50: > 1.02 µM
G-401
  IC50: > 1.02 µM
GCT
  IC50: > 1.02 µM
GMS-10
  IC50: > 1.02 µM
H4
  IC50: > 1.02 µM
HCC1419
  IC50: > 1.02 µM
HCT-116
  IC50: > 1.02 µM
HCT-15
  IC50: > 1.02 µM
HOP-92
  IC50: > 1.02 µM
HT-3
  IC50: 0.731 µM
HuO-3N1
  IC50: > 1.02 µM
IMR-5
  IC50: > 1.02 µM
KYSE-410
  IC50: > 1.02 µM
MDA-MB-361
  IC50: > 1.02 µM
ME-180
  IC50: > 1.02 µM
MEL-HO
  IC50: > 1.02 µM
MHH-CALL-2
  IC50: > 1.02 µM
MKN-1
  IC50: > 1.02 µM
NB1
  IC50: > 1.02 µM
NCI-H2052
  IC50: > 1.02 µM
NCI-H2081
  IC50: > 1.02 µM
NCI-H2196
  IC50: > 1.02 µM
NCI-H2342
  IC50: > 1.02 µM
NCI-H28
  IC50: > 1.02 µM
NCI-H292
  IC50: > 1.02 µM
NCI-H524
  IC50: > 1.02 µM
NCI-H716
  IC50: > 1.02 µM
NCI-H810
  IC50: > 1.02 µM
SNU-16
  IC50: > 1.02 µM
PANC-08-13
  IC50: > 1.02 µM
RO82-W-1
  IC50: > 1.02 µM
RPMI 8402
  IC50: > 1.02 µM
RT-112
  IC50: > 1.02 µM
SCC-9
  IC50: > 1.02 µM
SF-295
  IC50: > 1.02 µM
SK-MEL-28
  IC50: > 1.02 µM
SK-MEL3
  IC50: > 1.02 µM
ST486
  IC50: > 1.02 µM
SUP-T1
  IC50: > 1.02 µM
SW1088
  IC50: > 1.02 µM
SW48
  IC50: > 1.02 µM
SW626
  IC50: > 1.02 µM
SW756
  IC50: > 1.02 µM
SW780
  IC50: > 1.02 µM
SW837
  IC50: > 1.02 µM
8505C
  IC50: > 1.02 µM
A253 cell line
  IC50: > 1.02 µM
BC1 cell line
  IC50: > 1.02 µM
BPH-1
  IC50: > 1.02 µM
CA46
  IC50: > 1.02 µM
CAL-148
  IC50: > 1.02 µM
CAL-27
  IC50: > 1.02 µM
TE-441-T
  IC50: > 1.02 µM
U2OS
  IC50: > 1.02 µM
UACC-62
  IC50: > 1.02 µM
UMUC3
  IC50: > 1.02 µM
YKG-1
  IC50: > 1.02 µM
CESS
  IC50: > 1.02 µM
CHP-126
  IC50: > 1.02 µM
